In PubChem BioAssay AID330 (DTP/NCI, 2004):
Several values for one entry are separate records, joined by “and”; a condition that tells them apart may be missing. Equal values may be shown once. Inconclusive results and toxic doses are left out. The calls were made as follows: active = survival T/C of 150% or more; inactive = T/C below 125% in these data.

System: P388 leukemia ip, CD2F1 mice, survival T/C
Test: NCI In Vivo Anticancer Drug Screen. Data for tumor model P388 Leukemia (intraperitoneal) in CD2F1 (CDF1) mice
Settings: endpoint: median survival time, higher = longer survival
In short: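 Mice carrying the transplanted tumor received test compound or vehicle. Survival was recorded in each group, and the value is the treated-group measurement divided by that of the vehicle-treated control group.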

[1] = dose: 50.0 mg/kg/injection, schedule: Q01DX005 (ip), vehicle: saline
[2] = dose: 12.5 mg/kg/injection, schedule: Q01DX009 (ip), vehicle: saline
[3] = dose: 25.0 mg/kg/injection, schedule: Q01DX009 (ip), vehicle: saline
[4] = dose: 50.0 mg/kg/injection, schedule: Q01DX009 (ip), vehicle: saline
[5] = dose: 50.0 mg/kg/injection, schedule: Q04DX002 (ip), vehicle: saline with Tween-80
[6] = dose: 100.0 mg/kg/injection, schedule: Q04DX002 (ip), vehicle: saline with Tween-80
[7] = dose: 200.0 mg/kg/injection, schedule: Q04DX002 (ip), vehicle: saline with Tween-80
[8] = dose: 50.0 mg/kg/injection, schedule: Q01DX005 (ip), vehicle: saline with Tween-80
[9] = dose: 100.0 mg/kg/injection, schedule: Q01DX005 (ip), vehicle: saline with Tween-80
[10] = dose: 100.0 mg/kg/injection, schedule: Q01DX001 (ip), vehicle: saline with Tween-80
[11] = dose: 200.0 mg/kg/injection, schedule: Q01DX001 (ip), vehicle: saline with Tween-80
[12] = dose: 200.0 mg/kg/injection, schedule: Q01DX005 (ip), vehicle: saline with Tween-80
[13] = dose: 50.0 mg/kg/injection, schedule: Q01DX009 (ip), vehicle: saline with Tween-80
[14] = dose: 100.0 mg/kg/injection, schedule: Q01DX009 (ip), vehicle: saline with Tween-80
[15] = dose: 200.0 mg/kg/injection, schedule: Q01DX009 (ip), vehicle: saline with Tween-80
[16] = dose: 100.0 mg/kg/injection, schedule: Q04DX003 (ip), vehicle: saline
[17] = dose: 200.0 mg/kg/injection, schedule: Q04DX003 (ip), vehicle: saline
[18] = dose: 400.0 mg/kg/injection, schedule: Q04DX003 (ip), vehicle: saline

Measured: T/C

Cn1nc2c(c1-c1ccncc1)CCc1ccccc1-2
inactive: dose: 12.5 mg/kg/injection, schedule: Q01DX009 (ip), vehicle: other 110 % of control | dose: 25.0 mg/kg/injection, schedule: Q01DX009 (ip), vehicle: other 105 % of control | dose: 50.0 mg/kg/injection, schedule: Q01DX009 (ip), vehicle: other 115 % of control | dose: 100.0 mg/kg/injection, schedule: Q01DX009 (ip), vehicle: other 107 % of control | dose: 200.0 mg/kg/injection, schedule: Q01DX009 (ip), vehicle: other 103 % of control

Cc1cccc2c1NC(O)c1cccn1C2=O (centres undefined)
inactive: dose: 0.1 mg/kg/injection, schedule: Q01DX005 (ip), vehicle: water 98 % of control | dose: 0.2 mg/kg/injection, schedule: Q01DX005 (ip), vehicle: water 93 % of control | dose: 0.4 mg/kg/injection, schedule: Q01DX005 (ip), vehicle: water 93 % of control | dose: 0.8 mg/kg/injection, schedule: Q01DX005 (ip), vehicle: water 98 % of control | dose: 1.6 mg/kg/injection, schedule: Q01DX005 (ip), vehicle: water 93 % of control | dose: 5.0 mg/kg/injection, schedule: Q01DX005 (ip), vehicle: distilled water + Tween-80 103 % of control | dose: 10.0 mg/kg/injection, schedule: Q01DX005 (ip), vehicle: distilled water + Tween-80 94 % of control | dose: 20.0 mg/kg/injection, schedule: Q01DX005 (ip), vehicle: distilled water + Tween-80 98 % of control | dose: 40.0 mg/kg/injection, schedule: Q01DX005 (ip), vehicle: distilled water + Tween-80 95 % of control | dose: 80.0 mg/kg/injection, schedule: Q01DX005 (ip), vehicle: distilled water + Tween-80 94 % of control

CCN1NC1C (centres undefined)
inactive: [1] 105 % of control | dose: 100.0 mg/kg/injection, schedule: Q01DX005 (ip), vehicle: saline 97 % of control | dose: 200.0 mg/kg/injection, schedule: Q01DX005 (ip), vehicle: saline 97 % of control

Cc1cc(C)c(N=Cc2cccs2)c(C)c1
inactive: [2] 107 % of control | [3] 111 % of control | [4] 101 % of control and 106 % of control | dose: 200.0 mg/kg/injection, schedule: Q01DX009 (ip), vehicle: saline 92 % of control

CCC1CC(C)C(=O)NC1=O (centres undefined)
inactive: dose: 12.5 mg/kg/injection, schedule: Q04DX003 (ip), vehicle: saline 100 % of control | dose: 25.0 mg/kg/injection, schedule: Q04DX003 (ip), vehicle: saline 100 % of control | dose: 50.0 mg/kg/injection, schedule: Q04DX003 (ip), vehicle: saline 109 % of control

O=C1c2ccccc2C(=O)c2c(Nc3cccc(S(=O)(=O)N(CCO)CCO)c3)ccc(O)c21
inactive: dose: 25.0 mg/kg/injection, schedule: Q04DX002 (ip), vehicle: saline with Tween-80 99 % of control | [5] 93 % of control | [6] 92 % of control | [7] 93 % of control

O=C(C[n+]1ccsc1Br)c1ccccc1
inactive: [8] 102 % of control | [9] 119 % of control

NCCN.NCCN.NCCN.[Cl-].[Pt]
inactive: dose: 1.56 mg/kg/injection, schedule: Q01DX009 (ip), vehicle: saline 101 % of control | dose: 3.13 mg/kg/injection, schedule: Q01DX009 (ip), vehicle: saline 101 % of control | dose: 6.25 mg/kg/injection, schedule: Q01DX009 (ip), vehicle: saline 107 % of control | [2] 99 % of control

CNC(=O)OCCC(OC(=O)NC)C1CCC2C3CC=C4CC(OC(=O)c5ccccc5)CCC4(C)C3CCC12C (centres undefined)
inactive: dose: 50.0 mg/kg/injection, schedule: Q01DX005 (ip), vehicle: Klucel (hydroxypropylcellulose) (HPC) 103 % of control | dose: 100.0 mg/kg/injection, schedule: Q01DX005 (ip), vehicle: Klucel (hydroxypropylcellulose) (HPC) 99 % of control | dose: 200.0 mg/kg/injection, schedule: Q01DX005 (ip), vehicle: Klucel (hydroxypropylcellulose) (HPC) 92 % of control

CC1=Nc2ccccc2S/C1=C(/C)NN
inactive: [10] 104 % of control | [11] 104 % of control | dose: 400.0 mg/kg/injection, schedule: Q01DX001 (ip), vehicle: saline with Tween-80 95 % of control

Cc1cccc(-c2nc(=S)nc(N)s2)c1
inactive: [10] 95 % of control | [11] 93 % of control

O=S1(=O)N=C(N2CCCCC2)c2ccccc21
inactive: [8] 99 % of control | [9] 96 % of control | [12] 97 % of control

COc1ccccc1-n1cccc(C#N)c1=S
inactive: dose: 60.0 mg/kg/injection, schedule: Q01DX005 (ip), vehicle: Klucel (hydroxypropylcellulose) (HPC) 98 % of control | dose: 120.0 mg/kg/injection, schedule: Q01DX005 (ip), vehicle: Klucel (hydroxypropylcellulose) (HPC) 91 % of control | dose: 240.0 mg/kg/injection, schedule: Q01DX005 (ip), vehicle: Klucel (hydroxypropylcellulose) (HPC) 89 % of control

Cc1cccn2c(CCCc3nnc4c(C)cccn34)nnc12
inactive: [13] 100 % of control | [14] 101 % of control | [15] 101 % of control

CCOc1ccccc1C1N(C)CCCN1C
inactive: dose: 6.25 mg/kg/injection, schedule: Q01DX009 (ip), vehicle: saline sonified 90 % of control | dose: 12.5 mg/kg/injection, schedule: Q01DX009 (ip), vehicle: saline sonified 95 % of control | dose: 25.0 mg/kg/injection, schedule: Q01DX009 (ip), vehicle: saline sonified 86 % of control

CCOc1cc(/C=N/NC(=O)N(c2ccccc2)c2ccccc2)ccc1O
inactive: [8] 88 % of control | [9] 88 % of control

CSc1ccc2c(=O)c(C(=O)O)c[nH]c2c1
inactive: [16] 108 % of control | [17] 99 % of control | [18] 107 % of control

Fc1ccccc1N/N=c1\nnc2ccccc2s1
inactive: [5] 97 % of control | [6] 93 % of control | [7] 92 % of control

COc1cc(NCCN(C(C)C)C(C)C)c2ncccc2c1
inactive: dose: 12.5 mg/kg/injection, schedule: Q01DX005 (ip), vehicle: saline 101 % of control | dose: 25.0 mg/kg/injection, schedule: Q01DX005 (ip), vehicle: saline 93 % of control | [1] 90 % of control and 92 % of control

COc1cc(C2c3cc(O)c(OC)cc3CC(C(=O)O)C2CO)ccc1O (centres undefined)
inactive: [8] 100 % of control | [9] 97 % of control | [12] 98 % of control

O=[N+]([O-])c1ccc2nc(CCl)[nH]c2c1
inactive: dose: 12.5 mg/kg/injection, schedule: Q01DX009 (ip), vehicle: saline with Tween-80 103 % of control | dose: 25.0 mg/kg/injection, schedule: Q01DX009 (ip), vehicle: saline with Tween-80 116 % of control | [13] 99 % of control and 111 % of control

CCn1cc(C(=O)O)c(=O)c2cnc(N3CCCC3)nc21
inactive: [13] 90 % of control | [14] 99 % of control | [15] 92 % of control

N#CC(C(=O)CCCC(=O)Nc1cccc([N+](=O)[O-])c1)c1c(Cl)cccc1Cl (centres undefined)
inactive: [8] 111 % of control | [9] 111 % of control | [12] 105 % of control

O=C1c2ccccc2C(=O)N1CCS(=O)(=O)O
inactive: [2] 100 % of control | [3] 104 % of control | [4] 100 % of control | dose: 100.0 mg/kg/injection, schedule: Q01DX009 (ip), vehicle: saline 98 % of control

COC(=O)C([NH-])c1ccccc1.COC(=O)C([NH-])c1ccccc1.[Cl][Pd][Cl] (centres undefined)
inactive: [16] 108 % of control | [17] 104 % of control | [18] 103 % of control

CCCCCSC1=NC(c2ccc(C)cc2)(c2ccc(C)cc2)C(=O)N1
inactive: dose: 50.0 mg/kg/injection, schedule: Q01DX005 (ip), vehicle: Klucel + Tween-80 100 % of control | dose: 100.0 mg/kg/injection, schedule: Q01DX005 (ip), vehicle: Klucel + Tween-80 100 % of control | dose: 200.0 mg/kg/injection, schedule: Q01DX005 (ip), vehicle: Klucel + Tween-80 98 % of control

OC(C(Br)CBr)C(O)C(Br)CBr (centres undefined)
inactive: dose: 50.0 mg/kg/injection, schedule: Q01DX009 (ip), vehicle: Klucel (hydroxypropylcellulose) (HPC) 105 % of control | dose: 100.0 mg/kg/injection, schedule: Q01DX009 (ip), vehicle: Klucel (hydroxypropylcellulose) (HPC) 110 % of control | dose: 200.0 mg/kg/injection, schedule: Q01DX009 (ip), vehicle: Klucel (hydroxypropylcellulose) (HPC) 112 % of control

COc1cc(OC)c(NC(=S)Nc2cc(Cl)c(OC)cc2OC)cc1Cl
inactive: [13] 106 % of control | [14] 102 % of control | [15] 103 % of control
